# Measurements taken from paper PMC12888861, “Antibacterial activity of enmetazobactam against Acinetobacter spp.: a molecular dissection of mechanism of action and resistance determinants” (Antimicrobial Agents and Chemotherapy, 2025).
# Read-outs that look alike come from different tables or passages of the source.
# Test system: A. non-baumannii isolates (n = 87)
# Experiment: MIC, broth microdilution (EUCAST), A. non-baumannii isolates
# Assay type: cell-based, Acinetobacter spp. (non-baumannii)
# Method in brief: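 Broth microdilution per EUCAST v.15 guidelines on clinical Acinetobacter isolates from a Spanish 2020 multicenter collection; enmetazobactam also tested alone. A. baumannii ATCC 19606 served as reference strain, in duplicate assays.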
# [1] = Acinetobacter, A. non-baumannii isolates (n=87), ETZ fixed 8 mg/L in combinations
compound,measurement,setting,value
CC1(C)[C@H](C(=O)O)N2C(=O)C[C@H]2S1(=O)=O [sulbactam],MIC distribution 0.12,,2.3
same,MIC distribution 0.25,,8.0
same,MIC distribution 0.5,,44.8
same,MIC distribution 1,,82.8
same,MIC distribution 2,,97.7
same,MIC distribution 4,,100
same,MIC distribution 8,,100
same,MIC distribution 16,,100
same,MIC distribution 32,,100
same,MIC distribution ≤0.06,,1.1
same,MIC,"Acinetobacter baylyi, isolate NO-Ab27, Acinetobacter baylyi, in combinations ETZ fixed at 8 mg/L, read-out: MIC",1 µg/mL
same,MIC,"Acinetobacter beijerinckii, isolate NO-Ab122, Acinetobacter beijerinckii, in combinations ETZ fixed at 8 mg/L, read-out: MIC",2 µg/mL
same,MIC,"Acinetobacter bereziniae, isolate NO-Ab70, Acinetobacter bereziniae, in combinations ETZ fixed at 8 mg/L, read-out: MIC",0.5 µg/mL
same,MIC,"Acinetobacter bereziniae, isolate NO-Ab84, Acinetobacter bereziniae, in combinations ETZ fixed at 8 mg/L, read-out: MIC",1 µg/mL
same,MIC,"Acinetobacter bereziniae, isolate NO-Ab104, Acinetobacter bereziniae, in combinations ETZ fixed at 8 mg/L, read-out: MIC",0.5 µg/mL
same,MIC,"Acinetobacter bereziniae, isolate NO-Ab114, Acinetobacter bereziniae, in combinations ETZ fixed at 8 mg/L, read-out: MIC",1 µg/mL
same,MIC,"Acinetobacter bereziniae, isolate NO-Ab115, Acinetobacter bereziniae, in combinations ETZ fixed at 8 mg/L, read-out: MIC",1 µg/mL
same,MIC,"Acinetobacter bereziniae, isolate NO-Ab116, Acinetobacter bereziniae, in combinations ETZ fixed at 8 mg/L, read-out: MIC",0.5 µg/mL
same,MIC,"Acinetobacter bereziniae, isolate NO-Ab117, Acinetobacter bereziniae, in combinations ETZ fixed at 8 mg/L, read-out: MIC",1 µg/mL
same,MIC,"Acinetobacter bereziniae, isolate NO-Ab129, Acinetobacter bereziniae, in combinations ETZ fixed at 8 mg/L, read-out: MIC",1 µg/mL
same,MIC,"Acinetobacter bereziniae, isolate NO-Ab156, Acinetobacter bereziniae, in combinations ETZ fixed at 8 mg/L, read-out: MIC",1 µg/mL
same,MIC,"Acinetobacter calcoaceticus, isolate NO-Ab85, Acinetobacter calcoaceticus, in combinations ETZ fixed at 8 mg/L, read-out: MIC",2 µg/mL
same,MIC,"Acinetobacter calcoaceticus, isolate NO-Ab94, Acinetobacter calcoaceticus, in combinations ETZ fixed at 8 mg/L, read-out: MIC",2 µg/mL
same,MIC,"Acinetobacter calcoaceticus, isolate NO-Ab108, Acinetobacter calcoaceticus, in combinations ETZ fixed at 8 mg/L, read-out: MIC",4 µg/mL
same,MIC,"Acinetobacter calcoaceticus, isolate NO-Ab161, Acinetobacter calcoaceticus, in combinations ETZ fixed at 8 mg/L, read-out: MIC",4 µg/mL
same,MIC,"Acinetobacter calcoaceticus, isolate NO-Ab198, Acinetobacter calcoaceticus, in combinations ETZ fixed at 8 mg/L, read-out: MIC",2 µg/mL
same,MIC,"Acinetobacter calcoaceticus, isolate NO-Ab205, Acinetobacter calcoaceticus, in combinations ETZ fixed at 8 mg/L, read-out: MIC",2 µg/mL
same,MIC,"Acinetobacter calcoaceticus, isolate NO-Ab211, Acinetobacter calcoaceticus, in combinations ETZ fixed at 8 mg/L, read-out: MIC",1 µg/mL
same,MIC,"Acinetobacter courvalinii, isolate NO-Ab216, Acinetobacter courvalinii, in combinations ETZ fixed at 8 mg/L, read-out: MIC",0.5 µg/mL
same,MIC,"Acinetobacter dispersus, isolate NO-Ab2, Acinetobacter dispersus, in combinations ETZ fixed at 8 mg/L, read-out: MIC",0.5 µg/mL
same,MIC,"Acinetobacter guillouiae, isolate NO-Ab69, Acinetobacter guillouiae, in combinations ETZ fixed at 8 mg/L, read-out: MIC",1 µg/mL
same,MIC,"Acinetobacter guillouiae, isolate NO-Ab74, Acinetobacter guillouiae, in combinations ETZ fixed at 8 mg/L, read-out: MIC",0.5 µg/mL
same,MIC,"Acinetobacter haemolyticus, isolate NO-Ab92, Acinetobacter haemolyticus, in combinations ETZ fixed at 8 mg/L",0.5 µg/mL
same,MIC,"Acinetobacter haemolyticus, isolate NO-Ab177, Acinetobacter haemolyticus, in combinations ETZ fixed at 8 mg/L",0.5 µg/mL
same,MIC,"Acinetobacter haemolyticus, isolate NO-Ab217, Acinetobacter haemolyticus, in combinations ETZ fixed at 8 mg/L",0.25 µg/mL
same,MIC,"Acinetobacter johnsonii, isolate NO-Ab101, Acinetobacter johnsonii, in combinations ETZ fixed at 8 mg/L, read-out: MIC",1 µg/mL
same,MIC,"Acinetobacter junii, isolate NO-Ab76, Acinetobacter junii, in combinations ETZ fixed at 8 mg/L, read-out: MIC",0.5 µg/mL
same,MIC,"Acinetobacter junii, isolate NO-Ab77, Acinetobacter junii, OXA-24/40, in combinations ETZ fixed at 8 mg/L, read-out: MIC",0.5 µg/mL
same,MIC,"Acinetobacter lactucae, isolate NO-Ab60, Acinetobacter dijkshoorniae, in combinations ETZ fixed at 8 mg/L, read-out: MIC",1 µg/mL
same,MIC,"Acinetobacter lactucae, isolate NO-Ab63, Acinetobacter dijkshoorniae, in combinations ETZ fixed at 8 mg/L, read-out: MIC",1 µg/mL
same,MIC,"Acinetobacter lactucae, isolate NO-Ab65, Acinetobacter dijkshoorniae, in combinations ETZ fixed at 8 mg/L, read-out: MIC",1 µg/mL
same,MIC,"Acinetobacter lactucae, isolate NO-Ab86, Acinetobacter dijkshoorniae, in combinations ETZ fixed at 8 mg/L, read-out: MIC",1 µg/mL
same,MIC,"Acinetobacter lactucae, isolate NO-Ab88, Acinetobacter dijkshoorniae, in combinations ETZ fixed at 8 mg/L, read-out: MIC",0.5 µg/mL
same,MIC,"Acinetobacter lactucae, isolate NO-Ab91, Acinetobacter dijkshoorniae, in combinations ETZ fixed at 8 mg/L, read-out: MIC",1 µg/mL
same,MIC,"Acinetobacter lactucae, isolate NO-Ab121, Acinetobacter dijkshoorniae, in combinations ETZ fixed at 8 mg/L, read-out: MIC",2 µg/mL
same,MIC,"Acinetobacter lactucae, isolate NO-Ab125, Acinetobacter dijkshoorniae, in combinations ETZ fixed at 8 mg/L, read-out: MIC",1 µg/mL
same,MIC,"Acinetobacter lactucae, isolate NO-Ab160, Acinetobacter dijkshoorniae, in combinations ETZ fixed at 8 mg/L, read-out: MIC",0.5 µg/mL
same,MIC,"Acinetobacter nosocomialis, isolate NO-Ab43, Acinetobacter nosocomialis, in combinations ETZ fixed at 8 mg/L, read-out: MIC",2 µg/mL
same,MIC,"Acinetobacter nosocomialis, isolate NO-Ab68, Acinetobacter nosocomialis, OXA-24/40, in combinations ETZ fixed at 8 mg/L, read-out: MIC",1 µg/mL
same,MIC,"Acinetobacter nosocomialis, isolate NO-Ab98, Acinetobacter nosocomialis, in combinations ETZ fixed at 8 mg/L, read-out: MIC",2 µg/mL
same,MIC,"Acinetobacter nosocomialis, isolate NO-Ab208, Acinetobacter nosocomialis, in combinations ETZ fixed at 8 mg/L, read-out: MIC",0.5 µg/mL
same,MIC,"Acinetobacter pittii, MBC set, isolate NO-Ab89, A. pittii, read-out: MIC",0.5 µg/mL
same,MIC,"Acinetobacter pittii, isolate NO-Ab59, Acinetobacter pittii, in combinations ETZ fixed at 8 mg/L, read-out: MIC",1 µg/mL
same,MIC,"Acinetobacter pittii, isolate NO-Ab66, Acinetobacter pittii, in combinations ETZ fixed at 8 mg/L, read-out: MIC",1 µg/mL
same,MIC,"Acinetobacter pittii, isolate NO-Ab73, Acinetobacter pittii, in combinations ETZ fixed at 8 mg/L, read-out: MIC",0.5 µg/mL
same,MIC,"Acinetobacter pittii, isolate NO-Ab75, Acinetobacter pittii, in combinations ETZ fixed at 8 mg/L, read-out: MIC",1 µg/mL
same,MIC,"Acinetobacter pittii, isolate NO-Ab78, Acinetobacter pittii, in combinations ETZ fixed at 8 mg/L, read-out: MIC",0.5 µg/mL
same,MIC,"Acinetobacter pittii, isolate NO-Ab82, Acinetobacter pittii, in combinations ETZ fixed at 8 mg/L, read-out: MIC",0.5 µg/mL
same,MIC,"Acinetobacter pittii, isolate NO-Ab89, Acinetobacter pittii, in combinations ETZ fixed at 8 mg/L, read-out: MIC",0.5 µg/mL
same,MIC,"Acinetobacter pittii, isolate NO-Ab90, Acinetobacter pittii, in combinations ETZ fixed at 8 mg/L, read-out: MIC",0.5 µg/mL
same,MIC,"Acinetobacter pittii, isolate NO-Ab97, Acinetobacter pittii, in combinations ETZ fixed at 8 mg/L, read-out: MIC",1 µg/mL
same,MIC,"Acinetobacter pittii, isolate NO-Ab105, Acinetobacter pittii, in combinations ETZ fixed at 8 mg/L, read-out: MIC",1 µg/mL
same,MIC,"Acinetobacter pittii, isolate NO-Ab106, Acinetobacter pittii, in combinations ETZ fixed at 8 mg/L, read-out: MIC",0.5 µg/mL
same,MIC,"Acinetobacter pittii, isolate NO-Ab107, Acinetobacter pittii, in combinations ETZ fixed at 8 mg/L, read-out: MIC",0.5 µg/mL
same,MIC,"Acinetobacter pittii, isolate NO-Ab111, Acinetobacter pittii, in combinations ETZ fixed at 8 mg/L, read-out: MIC",1 µg/mL
same,MIC,"Acinetobacter pittii, isolate NO-Ab113, Acinetobacter pittii, in combinations ETZ fixed at 8 mg/L, read-out: MIC",1 µg/mL
same,MIC,"Acinetobacter pittii, isolate NO-Ab118, Acinetobacter pittii, in combinations ETZ fixed at 8 mg/L, read-out: MIC",2 µg/mL
same,MIC,"Acinetobacter pittii, isolate NO-Ab135, Acinetobacter pittii, in combinations ETZ fixed at 8 mg/L, read-out: MIC",0.5 µg/mL
same,MIC,"Acinetobacter pittii, isolate NO-Ab145, Acinetobacter pittii, in combinations ETZ fixed at 8 mg/L, read-out: MIC",1 µg/mL
same,MIC,"Acinetobacter pittii, isolate NO-Ab151, Acinetobacter pittii, in combinations ETZ fixed at 8 mg/L, read-out: MIC",2 µg/mL
same,MIC,"Acinetobacter pittii, isolate NO-Ab154, Acinetobacter pittii, in combinations ETZ fixed at 8 mg/L, read-out: MIC",0.5 µg/mL
same,MIC,"Acinetobacter pittii, isolate NO-Ab157, Acinetobacter pittii, in combinations ETZ fixed at 8 mg/L, read-out: MIC",1 µg/mL
same,MIC,"Acinetobacter pittii, isolate NO-Ab162, Acinetobacter pittii, in combinations ETZ fixed at 8 mg/L, read-out: MIC",0.5 µg/mL
same,MIC,"Acinetobacter pittii, isolate NO-Ab164, Acinetobacter pittii, in combinations ETZ fixed at 8 mg/L, read-out: MIC",0.5 µg/mL
same,MIC,"Acinetobacter pittii, isolate NO-Ab178, Acinetobacter pittii, in combinations ETZ fixed at 8 mg/L, read-out: MIC",0.5 µg/mL
same,MIC,"Acinetobacter pittii, isolate NO-Ab197, Acinetobacter pittii, in combinations ETZ fixed at 8 mg/L, read-out: MIC",0.5 µg/mL
same,MIC,"Acinetobacter proteolyticus, isolate NO-Ab99, Acinetobacter proteolyticus, in combinations ETZ fixed at 8 mg/L, read-out: MIC",1 µg/mL
same,MIC,"Acinetobacter proteolyticus, isolate NO-Ab102, Acinetobacter proteolyticus, in combinations ETZ fixed at 8 mg/L, read-out: MIC",1 µg/mL
same,MIC,"Acinetobacter proteolyticus, isolate NO-Ab210, Acinetobacter proteolyticus, in combinations ETZ fixed at 8 mg/L, read-out: MIC",0.25 µg/mL
same,MIC,"Acinetobacter radioresistens, isolate NO-Ab175, Acinetobacter radioresistens, in combinations ETZ fixed at 8 mg/L, read-out: MIC",1 µg/mL
same,MIC,"Acinetobacter radioresistens, isolate NO-Ab215, Acinetobacter radioresistens, in combinations ETZ fixed at 8 mg/L, read-out: MIC",0.25 µg/mL
same,MIC,"Acinetobacter ursingii, isolate NO-Ab3, Acinetobacter ursingii, in combinations ETZ fixed at 8 mg/L, read-out: MIC",0.25 µg/mL
same,MIC,"Acinetobacter ursingii, isolate NO-Ab64, Acinetobacter ursingii, in combinations ETZ fixed at 8 mg/L, read-out: MIC",1 µg/mL
same,MIC,"Acinetobacter ursingii, isolate NO-Ab87, Acinetobacter ursingii, in combinations ETZ fixed at 8 mg/L, read-out: MIC",0.12 µg/mL
same,MIC,"Acinetobacter ursingii, isolate NO-Ab103, Acinetobacter ursingii, in combinations ETZ fixed at 8 mg/L, read-out: MIC",0.5 µg/mL
same,MIC,"Acinetobacter ursingii, isolate NO-Ab119, Acinetobacter ursingii, in combinations ETZ fixed at 8 mg/L, read-out: MIC",0.5 µg/mL
same,MIC,"Acinetobacter ursingii, isolate NO-Ab120, Acinetobacter ursingii, in combinations ETZ fixed at 8 mg/L, read-out: MIC",0.5 µg/mL
same,MIC,"Acinetobacter ursingii, isolate NO-Ab123, Acinetobacter ursingii, in combinations ETZ fixed at 8 mg/L, read-out: MIC",2 µg/mL
same,MIC,"Acinetobacter ursingii, isolate NO-Ab126, Acinetobacter ursingii, in combinations ETZ fixed at 8 mg/L, read-out: MIC",1 µg/mL
same,MIC,"Acinetobacter ursingii, isolate NO-Ab147, Acinetobacter ursingii, in combinations ETZ fixed at 8 mg/L, read-out: MIC",2 µg/mL
same,MIC,"Acinetobacter ursingii, isolate NO-Ab155, Acinetobacter ursingii, in combinations ETZ fixed at 8 mg/L, read-out: MIC",1 µg/mL
same,MIC,"Acinetobacter ursingii, isolate NO-Ab165, Acinetobacter ursingii, in combinations ETZ fixed at 8 mg/L, read-out: MIC",1 µg/mL
same,MIC,"Acinetobacter ursingii, isolate NO-Ab166, Acinetobacter ursingii, in combinations ETZ fixed at 8 mg/L, read-out: MIC",0.25 µg/mL
same,MIC,"Acinetobacter ursingii, isolate NO-Ab214, Acinetobacter ursingii, in combinations ETZ fixed at 8 mg/L, read-out: MIC",≤ 0.06 µg/mL
same,MIC,"Acinetobacter ursingii, isolate NO-Ab221, Acinetobacter ursingii, in combinations ETZ fixed at 8 mg/L, read-out: MIC",0.5 µg/mL
same,MIC,"Acinetobacter ursingii, isolate NO-Ab222, Acinetobacter ursingii, in combinations ETZ fixed at 8 mg/L, read-out: MIC",0.5 µg/mL
same,MIC,"Acinetobacter, MBC set, isolate NO-Ab84, A. bereziniae, read-out: MIC",1 µg/mL
same,MIC,"Acinetobacter, MBC set, isolate NO-Ab88, A. dijkshoorniae, read-out: MIC",0.5 µg/mL
same,MIC,"Acinetobacter, isolate NO-Ab146, Acinetobacter iwoffii, in combinations ETZ fixed at 8 mg/L, read-out: MIC",2 µg/mL
same,MIC,"Acinetobacter, isolate NO-Ab159, Acinetobacter iwoffii, in combinations ETZ fixed at 8 mg/L, read-out: MIC",0.5 µg/mL
same,MIC50,[1],1 µg/mL
same,MIC90,[1],2 µg/mL
